Experimental data published in article PMC7155171, “Probing the Open Global Health Chemical Diversity Library for Multistage-Active Starting Points for Next-Generation Antimalarials” (ACS Infectious Diseases, 2020).
Read-outs that look alike come from different tables or passages of the source.

Columns and labels:
[1] = system: P. falciparum Dd2 (PfLuc) line expressing firefly luciferase, asexual blood stage; assay: microbe, parasite or virus in culture; type: cell-based, Plasmodium falciparum; conditions: Plasmodium falciparum
P. falciparum Dd2 = assay: SYBR green I asexual blood stage proliferation assay (96 h); type: cell-based, Plasmodium falciparum; conditions: for IC50 / Emax: Plasmodium falciparum
[2] = system: P. berghei liver stage (PbLuc); assay: P. berghei luciferase liver stage (PbLuc) assay in HepG2-A16-CD81 hepatocytes; type: cell-based, Plasmodium berghei
[3] = DD2, read-out: P. falciparum Luciferase ABS 11-pt Reconfirmation Dose Response (48hr): IC50, 11-pt dose response, 48hr
[4] = DD2, 8-pt dose response, 96hr, read-out: P. falciparum Luciferase ABS 8-pt Reconfirmation Dose Response (96hr): IC50
[5] = DD2, 8-pt dose response, 96hr, read-out: P. falciparum Luciferase ABS 8-pt Reconfirmation Dose Response (96hr): Maximum inhibition (%)
[6] = DD2, 11-pt dose response, 48hr, read-out: P. falciparum Luciferase ABS 11-pt Reconfirmation Dose Response (48hr): Maximum inhibition (%)
[7] = DD2, 11-pt dose response, 96hr, read-out: P. falciparum Luciferase ABS 11-pt Reconfirmation Dose Response (96hr): IC50
[8] = DD2, 11-pt dose response, 96hr, read-out: P. falciparum Luciferase ABS 11-pt Reconfirmation Dose Response (96hr): Maximum inhibition (%)
[9] = DD2, 11-pt dose response, 96hr, read-out: P. falciparum Sybr Green I ABS 11-pt Reconfirmation Dose Response (96hr): IC50
[10] = DD2, 11-pt dose response, 96hr, read-out: P. falciparum Sybr Green I ABS 11-pt Reconfirmation Dose Response (96hr): Maximum inhibition (%)
[11] = DD2, read-out: CDD P. falciparum Luciferase ABS 11-pt Reconfirmation Dose Response (48hr): IC50 (μM), 11-pt dose response, 48hr
[12] = DD2, 8-pt dose response, 96hr, read-out: CDD P. falciparum Luciferase ABS 8-pt Reconfirmation Dose Response (96hr): IC50
[13] = DD2, 8-pt dose response, 96hr, read-out: CDD P. falciparum Luciferase ABS 8-pt Reconfirmation Dose Response (96hr): Maximum inhibition (%)
[14] = DD2, 11-pt dose response, 48hr, read-out: CDD P. falciparum Luciferase ABS 11-pt Reconfirmation Dose Response (48hr): Maximum inhibition (%)
[15] = DD2, 11-pt dose response, 96hr, read-out: CDD P. falciparum Luciferase ABS 11-pt Reconfirmation Dose Response (96hr): IC50
[16] = DD2, 11-pt dose response, 96hr, read-out: CDD P. falciparum Luciferase ABS 11-pt Reconfirmation Dose Response (96hr): Maximum inhibition (%)
[17] = DD2, Sybr Green I, 11-pt dose response, 96hr, read-out: CDD P. falciparum Sybr Green I ABS 11-pt Reconfirmation Dose Response (96hr): IC50
[18] = DD2, Sybr Green I, 11-pt dose response, 96hr, read-out: CDD P. falciparum Sybr Green I ABS 11-pt Reconfirmation Dose Response (96hr): Maximum inhibition (%)

Compound	IC50 [1, 11]	IC50 [1, 12]	Emax [1, 13]	Emax [1, 14]	IC50 [1, 15]	Emax [1, 16]	IC50 (P. falciparum Dd2; [17])	Emax (P. falciparum Dd2; [18])	also measured
CCc1cnc(N)nc1NC(C)c1ccc(C)c(C)c1 (stereo not drawn) [DDD01250400]									IC50 [1, 3]: 2.84 µM; IC50 [1, 4]: 1.66 µM; Emax [1, 5]: 81%; Emax [1, 6]: 94.8%; IC50 [1, 7]: 0.373 µM; Emax [1, 8]: 99.6%; IC50 (P. falciparum Dd2; [9]): 4480 nM; Emax (P. falciparum Dd2; [10]): 62.1%; confirmed liver stage activity [2]: confirmed liver stage activity
CC(C)N1CCC(NCc2cccnc2N(C)Cc2ccccc2)CC1 [DDD01257477]	> 12.5 µM	0.45 µM	89.2%	61.1%	3.84 µM	87.8%	163 nM		
Cc1nc[nH]c1CN(C)CC1CCCN(CCc2ccc(Cl)cc2)C1 (stereo not drawn) [DDD01257555]	1.62 µM	0.65 µM	93.5%	99.6%	0.463 µM	99.9%	963 nM	98.8%	
Clc1ccccc1C1(c2ccnc(CC3CC3)n2)CCNCC1 [DDD01257764]	3.74 µM	0.27 µM	92.2%	90.6%	0.581 µM	98%	422 nM	70.6%	IC50 ([1]; 96 h incubation, Dd2 luciferase, read-out: 96 hour Pfluc IC50): 0.58 µM
OCC1CCCCN1c1ccc(-c2nc(-c3ccccc3F)no2)cn1 (stereo not drawn) [DDD01257937]	1.36 µM	0.46 µM	90.5%	83.7%	1.23 µM	89.1%	> 12500 nM	41.3%	
Clc1ccccc1C1(c2ccnc(-c3ccncc3)n2)CCNCC1 [DDD01257938]	4.26 µM	0.31 µM	93.5%	98.2%	0.482 µM	99.5%	2220 nM	98.9%	
CN(Cc1cccc(O)c1)CC1CCCN(CCc2ccc(Cl)cc2)C1 (stereo not drawn) [DDD01257948]	2.24 µM	0.67 µM	94.6%	97.4%	1.38 µM	99.5%	802 nM	98%	
CCn1ccnc1CN1CCCC(CO)(Cc2cccc(Cl)c2)C1 (stereo not drawn) [DDD01258327]									IC50 [1, 3]: > 12.5 µM; IC50 [1, 4]: 2.14 µM; Emax [1, 5]: 81.2%; Emax [1, 6]: 38.3%; IC50 [1, 7]: 2.68 µM; Emax [1, 8]: 82.9%; IC50 (P. falciparum Dd2; [9]): 3020 nM; Emax (P. falciparum Dd2; [10]): 58.2%
COc1cc(CNCC(O)c2cccc(F)c2)cc2c1OCO2 (stereo not drawn) [DDD01296688]	3.64 µM	0.82 µM		88.9%	1.77 µM	98.5%	4840 nM	88.3%	
COc1cc(CNCC(O)c2ccc(F)cc2F)cc2c1OCO2 (stereo not drawn) [DDD01296730]									IC50 [1, 3]: 4.89 µM; IC50 [1, 4]: 1.16 µM; Emax [1, 5]: 88.4%; Emax [1, 6]: 87.3%; IC50 [1, 7]: 2.48 µM; Emax [1, 8]: 98.1%; IC50 (P. falciparum Dd2; [9]): 4870 nM
O=C(Nc1ccc(OC2CCCC2)cc1)C1CCCN1c1nccs1 (stereo not drawn) [DDD01297375, O=C(Nc1ccc(OC2CCCC2)cc1)C1CCCN1c1nccs1]									IC50 ([1]; DD2, read-out: CDD P. falciparum Luc 11pt dose response (96hr, n=2): IC50 (μM), 96hr, 11-point, n=2): 0.0372 µM; IC50 ([1]; DD2, read-out: CDD P. falciparum Luciferase 11pt dose response (48hr, n=2): IC50 (μM), 48hr, 11-point, n=2): > 10 µM; Emax ([1]; DD2, 48hr, 11-point, read-out: CDD P. falciparum Luciferase ABS 11-pt Reconfirmation Dose Response (48hr): Maximum inhibition (%)): 50%; Emax ([1]; DD2, 96hr, 11-point, read-out: CDD P. falciparum Luciferase ABS 11-pt Reconfirmation Dose Response (96hr): Maximum inhibition (%)): 94.7%; CDD P. falciparum Sybr Green I ABS Dd2 Dose Response: Maximum measured (%) (P. falciparum Dd2; Dd2, 96 h): 45.3%; IC50 (P. falciparum Dd2; DD2, 96 h, read-out: CDD P. falciparum Sybr Green I ABS Dd2 Dose Response: IC50): > 12500 nM
OCCN1CCC(CNCc2ccccc2OC(F)(F)F)CC1 [DDD01297525]									IC50 [1, 3]: > 12.5 µM; IC50 [1, 4]: 1.51 µM; Emax [1, 5]: 88.7%; Emax [1, 6]: 54.6%; IC50 [1, 7]: 5.42 µM; Emax [1, 8]: 88.7%; IC50 (P. falciparum Dd2; [9]): 7440 nM; Emax (P. falciparum Dd2; [10]): 77.9%
CC(O)CN1CCC(CNCc2cccc(OC(F)(F)F)c2)CC1 (stereo not drawn) [DDD01297560]	> 12.5 µM	1.04 µM	91%	58.6%	5.4 µM	87.8%	2940 nM	91.2%	
Cc1ccnc(NC(=O)c2[nH]nc(C(C)C)c2Br)c1 [DDD01298775]	3.6 µM	0.39 µM	91.3%	93%	1.39 µM	97%	8740 nM	51.2%	
CC(C)c1n[nH]c(C(=O)Nc2ccccn2)c1Br [DDD01298780]	4.01 µM	0.53 µM	92.3%	87.6%	3.99 µM	95.1%	4270 nM	51.4%	
Cc1cc(C)n(C2CN(CC(O)c3cc(F)ccc3F)C2)n1 (stereo not drawn) [DDD01298957]	1.46 µM	0.21 µM	94.9%	98.6%	0.854 µM	100%	733 nM	98.5%	
CC(O)CN1CCC(CNCc2cccc(C(F)(F)F)c2)CC1 (stereo not drawn) [DDD01300262]									IC50 [1, 3]: 9.69 µM; IC50 [1, 4]: 1.59 µM; Emax [1, 5]: 89.5%; Emax [1, 6]: 69.7%; IC50 [1, 7]: 4.76 µM; Emax [1, 8]: 92.7%; IC50 (P. falciparum Dd2; [9]): 2460 nM; Emax (P. falciparum Dd2; [10]): 91.1%
CC(O)CN1CCC(CNCc2cccc(Cl)c2)CC1 (stereo not drawn) [DDD01300263]	5.96 µM	0.76 µM	89.7%	89%	2.57 µM	98%	3650 nM	89.5%	
